Read-outs that look alike come from different tables or passages of the source.
Test system: L1210 tumor cells
Conditions: 30 mg/Kg s.c. methionine-enkephalin where combined
Text: Groups of BDF1 female mouse strain (16-20 gms) were inoculated with L1210 (leukemia) tumor cells (1×10^4, 1×10^3, or 1×10^2 cells) and observed for survival. The L1210 line of tumor cells was maintained in DBA/2 host mice. Ascitic fluid from the DBA/2 mice was used to inoculate the BDF1 mice transferred in RPMI 1640 buffer at pH 8-9).
In order to test for any synergistic effect of using an endogenous enkephalin with a known chemo-therapeutic agent, a study involving the inoculation of groups of mice with massive doses (1×10^6 ) of L1210 tumor cells was performed in a manner analogous to the previous examples transferred in RPMI 1640 at pH 7.

## N.N.[Cl][Pt][Cl] [Cis-platin, cis-platin]
2 mg/Kg cis-platin, day 9
  cumulative dead: 3/20
2 mg/Kg cis-platin, day 10
  cumulative dead: 13/20
2 mg/Kg cis-platin, day 11
  cumulative dead: 14/20
2 mg/Kg cis-platin, day 12
  cumulative dead: 15/20
2 mg/Kg cis-platin, day 13
  cumulative dead: 17/20
2 mg/Kg cis-platin, day 14
  cumulative dead: 19/20
2 mg/Kg cis-platin, saline control 9 Days
  Median Day of Death (ED50): 10 days
4 mg/Kg cis-platin, day 11
  cumulative dead: 10/20
4 mg/Kg cis-platin, day 12
  cumulative dead: 15/20
4 mg/Kg cis-platin, day 13
  cumulative dead: 19/20
4 mg/Kg cis-platin, day 15
  cumulative dead: 20/20
4 mg/Kg cis-platin, saline control 8 Days
  Median Day of Death (ED50): 10 days
8 mg/Kg cis-platin, saline control 8 days
  Median Day of Death (ED50): 12 days
Single dose 8 mg/Kg cis-platin, day 9
  cumulative dead: 2/20
Single dose 8 mg/Kg cis-platin, day 12
  cumulative dead: 4/20
Single dose 8 mg/Kg cis-platin, day 13
  cumulative dead: 7/20
Single dose 8 mg/Kg cis-platin, day 14
  cumulative dead: 12/20
Single dose 8 mg/Kg cis-platin, day 15
  cumulative dead: 16/20
Single dose 8 mg/Kg cis-platin, day 16
  cumulative dead: 18/20
Single dose 8 mg/Kg cis-platin, day 18
  cumulative dead: 19/20
Single dose 8 mg/Kg cis-platin, day 20
  cumulative dead: 20/20
